The record followed here is ChEMBL document CHEMBL3352288, “Synthesis and biological evaluation of 9α- and 9β-hydroxyamino-parthenolides as novel anticancer agents” (Bioorg Med Chem Lett, 2014).

Format in all cases: functional, cell-based
Assay [1] has as its system A549. The experiment in a line: Anticancer activity against human A549 cells assessed as growth inhibition after 72 hrs by MTT colorimetric assay. Particulars: A549, 72 h. Background: Formazan colour is commonly taken as a measure of viable cells.
Assay [2] concerns Hs 683. The experiment in a line: Anticancer activity against human Hs 683 cells assessed as growth inhibition after 72 hrs by MTT colorimetric assay. Particulars: Hs 683, 72 h.
Assay [3] relates to MCF7. Kind of assay: Anticancer activity against human MCF7 cells assessed as growth inhibition after 72 hrs by MTT assay. The following applies: MCF7, 72 h.
Assay [4] has as its system SK-MEL-28. The experiment in a line: Anticancer activity against human SK-MEL-28 cells assessed as growth inhibition after 72 hrs by MTT assay. The following applies: SK-MEL-28, 72 h.
Assay [5] in a line: Anticancer activity against human Glioma cells assessed as growth inhibition after 72 hrs by MTT assay.
The nature of assay [6]: Anticancer activity against mouse B16F10 cells assessed as growth inhibition after 72 hrs by MTT colorimetric assay. The following applies: B16-F10, 72 h.
The subject of assay [7] is T98G. Kind of assay: Anticancer activity against human T98G cells assessed as growth inhibition after 72 hrs by MTT assay.

As usually defined, the IC50 is the concentration at which inhibition is half-maximal.

In the case of `C/C1=C\CC[C@@]2(C)O[C@@H]2[C@H]2OC(=O)[C@@H](CN3CCCC3)[C@@H]2C[C@H]1O`, the IC50 in assay [1] came to 10 µM; in assay [2], 15 µM; in assay [3], 21 µM; in assay [4], 19 µM; in assay [5], 5 µM; in assay [6], 4 µM.
As to `C/C1=C\CC[C@@]2(C)O[C@@H]2[C@H]2OC(=O)[C@@H](CN3CCCCC3)[C@@H]2C[C@H]1O`, the 50% inhibitory concentration (IC50) in assay [1] worked out at 18 µM; in assay [2] it was 7 µM; in assay [3], 16 µM; in assay [4], 16 µM; in assay [5], 4 µM; in assay [6], 4 µM.
As to `C/C1=C\CC[C@@]2(C)O[C@@H]2[C@H]2OC(=O)[C@@H](CN3CCN(C)CC3)[C@@H]2C[C@H]1O`, the IC50 in assay [1] worked out at 30 µM; in assay [2], 33 µM; in assay [3] it was 33 µM; in assay [4], 57 µM; in assay [5], 36 µM; in assay [6], 25 µM.
Take `C/C1=C\CC[C@@]2(C)O[C@@H]2[C@H]2OC(=O)[C@@H](CN(C)CCN(C)C)[C@@H]2C[C@H]1O`: the IC50 stood at 8 µM in assay [1]; 9 µM in assay [2]; 14 µM in assay [3]; 19 µM in assay [4]; 16 µM in assay [5]; 4 µM in assay [6].
In the case of `C/C1=C\CC[C@@]2(C)O[C@@H]2[C@H]2OC(=O)[C@@H](CN3CCOCC3)[C@@H]2C[C@H]1O`, the 50% inhibitory concentration (IC50) in assay [1] came out at 25 µM; in assay [2] it was 22 µM; in assay [3] it was 24 µM; in assay [4], 22 µM; in assay [5], 5 µM; in assay [6], 5 µM.
As for `C/C1=C\CC[C@@]2(C)O[C@@H]2[C@H]2OC(=O)[C@@H](CN3CCN(c4ccccc4)CC3)[C@@H]2C[C@H]1O`, the concentration for half-maximal inhibition (IC50) in assay [1] came to 17 µM; in assay [2], 22 µM; in assay [3] it was 19 µM; in assay [4], 19 µM; in assay [5], 5 µM; in assay [6], 6 µM.
Consider `C/C1=C\CC[C@@]2(C)O[C@@H]2[C@H]2OC(=O)[C@@H](CN3CCN(c4ccccc4F)CC3)[C@@H]2C[C@H]1O`, for which the half-inhibitory concentration (IC50) was found to be 22 µM in assay [1]; 25 µM in assay [2]; 24 µM in assay [3]; 25 µM in assay [4]; 6 µM in assay [5]; 6 µM in assay [6].
Turning to `COc1ccc(N2CCN(C[C@@H]3C(=O)O[C@H]4[C@H]3C[C@@H](O)/C(C)=C/CC[C@@]3(C)O[C@H]43)CC2)cc1`, the IC50 in assay [1] was determined as 26 µM; in assay [2] it was 22 µM; in assay [3] it was 24 µM; in assay [4] it was 25 µM; in assay [5] it was 18 µM; in assay [6], 14 µM.
In the case of `C/C1=C\CC[C@@]2(C)O[C@@H]2[C@H]2OC(=O)[C@@H](CN3CCCC3)[C@@H]2C[C@@H]1O`, the IC50 in assay [1] came out at 9 µM; in assay [2] it was 10 µM; in assay [3] it was 18 µM; in assay [4], 23 µM; in assay [7], 15 µM; in assay [6] it was 7 µM.
With `C/C1=C\CC[C@@]2(C)O[C@@H]2[C@H]2OC(=O)[C@@H](CN3CCCCC3)[C@@H]2C[C@@H]1O`, the IC50 in assay [1] came to 6 µM; in assay [2], 7 µM; in assay [3] it was 8 µM; in assay [4], 10 µM; in assay [7], 17 µM; in assay [6] it was 6 µM.
For `C/C1=C\CC[C@@]2(C)O[C@@H]2[C@H]2OC(=O)[C@@H](CN3CCN(C)CC3)[C@@H]2C[C@@H]1O`, the IC50 worked out at 25 µM in assay [1]; 22 µM in assay [2]; 22 µM in assay [3]; 23 µM in assay [4]; 23 µM in assay [7]; 9 µM in assay [6].
As to `C[C@]12O[C@@H]1CC[C@@]1(C)O[C@@H]1[C@H]1OC(=O)[C@@H](CN3CCCCC3)[C@@H]1C[C@H]2O`, the 50% inhibitory concentration (IC50) in assay [1] was determined as 90 µM; in assay [2] it was 67 µM; in assay [3], 74 µM; in assay [4] it was 84 µM; in assay [5], 59 µM; in assay [6], 46 µM.
As for `C[C@]12O[C@@H]1CC[C@@]1(C)O[C@@H]1[C@H]1OC(=O)[C@@H](CN3CCOCC3)[C@@H]1C[C@H]2O`, the 50% inhibitory concentration (IC50) in assay [1] is 23 µM; in assay [2], 24 µM; in assay [3], 24 µM; in assay [4] it was 22 µM; in assay [5], 12 µM; in assay [6], 9 µM.
With `C[C@]12O[C@@H]1CC[C@@]1(C)O[C@@H]1[C@H]1OC(=O)[C@@H](CN3CCN(c4ccccc4)CC3)[C@@H]1C[C@H]2O`, the IC50 in assay [1] turned out to be 48 µM; in assay [2], 31 µM; in assay [3] it was 59 µM; in assay [4] it was 51 µM; in assay [5], 35 µM; in assay [6], 22 µM.
`C[C@]12O[C@@H]1CC[C@@]1(C)O[C@@H]1[C@H]1OC(=O)[C@@H](CN3CCN(c4ccccc4F)CC3)[C@@H]1C[C@H]2O`: the IC50 in assay [1] was found to be 22 µM; in assay [2] it was 18 µM; in assay [3] it was 20 µM; in assay [4], 17 µM; in assay [5] it was 8 µM; in assay [6], 5 µM.
With `C[C@]12O[C@@H]1CC[C@@]1(C)O[C@@H]1[C@H]1OC(=O)[C@@H](CN3CCN(c4ccc(Cl)cc4)CC3)[C@@H]1C[C@H]2O`, the IC50 was 28 µM in assay [1]; 29 µM in assay [3]; 31 µM in assay [4]; 16 µM in assay [7]; 19 µM in assay [6].
As to `C=C1C(=O)O[C@H]2[C@H]1C[C@H](O)/C(C)=C/CC[C@@]1(C)O[C@@H]21`, the 50% inhibitory concentration (IC50) in assay [1] is 24 µM; in assay [2], 25 µM; in assay [3], 23 µM; in assay [4], 25 µM; in assay [7], 25 µM; in assay [6], 15 µM.
As to `C=C1C(=O)O[C@H]2[C@H]1C[C@@H](O)/C(C)=C/CC[C@@]1(C)O[C@@H]21`, the IC50 in assay [1] was found to be 7 µM; in assay [2], 7 µM; in assay [3] it was 6 µM; in assay [4], 9 µM; in assay [7] it was 11 µM; in assay [6], 4 µM.
